Key:
[1] = biological target: 5-hydroxytryptamine receptor 6 (Homo sapiens, UniProt P50406); assay type: cell membranes, HeLa, Membrane; also: in other assays of this panel Not Active means under 50% inhibition at 10 µM
[2] = biological target: Estrogen receptor beta (Homo sapiens, UniProt Q92731); settings: sf9; also: in other assays of this panel Not Active means under 50% inhibition at 10 µM
[3] = biological target: Sodium-dependent noradrenaline transporter (Homo sapiens, UniProt P23975); assay: DRUGMATRIX: Norepinephrine Transporter radioligand binding (ligand: [125I] RTI-55); assay type: cell membranes, MDCK, Membrane; settings: Not Active = under 50% inhibition at 10 µM
[4] = biological target: Vasopressin V1a receptor (Homo sapiens, UniProt P37288); assay type: cell membranes, Membrane; settings: hek293; also: in other assays of this panel Not Active means under 50% inhibition at 10 µM
[5] = DRUGMATRIX: Tumor Necrosis Factor (TNF), Non-Selective radioligand binding (ligand: [125I] TNF-alpha); assay type: cell membranes, Membrane; settings: u-937; Not Active = under 50% inhibition at 10 µM
[6] = biological target: T1, Thromboxane-A synthase (Homo sapiens, UniProt P24557); assay: biochemical; assay type: tissue-based, Platelet;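 also: enzyme inhibition assay with PGH2 supplied as substrate; in other assays of this panel Not Active means under 50% inhibition at 10 µM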
T1 sequence (P24557 whole entry): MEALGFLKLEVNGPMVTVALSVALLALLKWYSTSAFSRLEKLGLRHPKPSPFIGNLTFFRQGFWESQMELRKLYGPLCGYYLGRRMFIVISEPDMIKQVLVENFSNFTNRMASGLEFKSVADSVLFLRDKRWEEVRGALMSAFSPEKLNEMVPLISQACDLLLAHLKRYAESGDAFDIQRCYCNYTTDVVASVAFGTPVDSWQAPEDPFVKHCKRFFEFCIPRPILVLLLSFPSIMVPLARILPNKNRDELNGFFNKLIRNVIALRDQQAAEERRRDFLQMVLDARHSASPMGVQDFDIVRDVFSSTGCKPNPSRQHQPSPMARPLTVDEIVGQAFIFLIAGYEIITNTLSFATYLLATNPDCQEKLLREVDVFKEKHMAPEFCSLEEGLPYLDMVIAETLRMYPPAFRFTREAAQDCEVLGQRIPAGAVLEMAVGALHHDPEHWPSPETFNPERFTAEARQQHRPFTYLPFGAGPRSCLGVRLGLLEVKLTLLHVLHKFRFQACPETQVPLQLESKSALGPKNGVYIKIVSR

[7] = biological target: Melanocortin receptor 4 (Homo sapiens, UniProt P32245); assay type: cell membranes, Membrane; settings: hek293; also: in other assays of this panel Not Active means under 50% inhibition at 10 µM
[8] = DRUGMATRIX: Glutamate, Kainate radioligand binding (ligand: [3H] Kainic acid); assay type: cell membranes, Rattus norvegicus, Wistar, Brain, Membrane; settings: Not Active = under 50% inhibition at 10 µM
[9] = biological target: Beta-3 adrenergic receptor (Homo sapiens, UniProt P13945); assay: DRUGMATRIX: Adrenergic beta3 radioligand binding (ligand: [125I] Cyanopindolol); assay type: cell membranes, Membrane; settings: hek293; Not Active = under 50% inhibition at 10 µM
[10] = biological target: T2, Receptor-type tyrosine-protein phosphatase C (Homo sapiens, UniProt P08575); set-up: species or system Escherichia coli
T2 sequence (P08575 whole entry): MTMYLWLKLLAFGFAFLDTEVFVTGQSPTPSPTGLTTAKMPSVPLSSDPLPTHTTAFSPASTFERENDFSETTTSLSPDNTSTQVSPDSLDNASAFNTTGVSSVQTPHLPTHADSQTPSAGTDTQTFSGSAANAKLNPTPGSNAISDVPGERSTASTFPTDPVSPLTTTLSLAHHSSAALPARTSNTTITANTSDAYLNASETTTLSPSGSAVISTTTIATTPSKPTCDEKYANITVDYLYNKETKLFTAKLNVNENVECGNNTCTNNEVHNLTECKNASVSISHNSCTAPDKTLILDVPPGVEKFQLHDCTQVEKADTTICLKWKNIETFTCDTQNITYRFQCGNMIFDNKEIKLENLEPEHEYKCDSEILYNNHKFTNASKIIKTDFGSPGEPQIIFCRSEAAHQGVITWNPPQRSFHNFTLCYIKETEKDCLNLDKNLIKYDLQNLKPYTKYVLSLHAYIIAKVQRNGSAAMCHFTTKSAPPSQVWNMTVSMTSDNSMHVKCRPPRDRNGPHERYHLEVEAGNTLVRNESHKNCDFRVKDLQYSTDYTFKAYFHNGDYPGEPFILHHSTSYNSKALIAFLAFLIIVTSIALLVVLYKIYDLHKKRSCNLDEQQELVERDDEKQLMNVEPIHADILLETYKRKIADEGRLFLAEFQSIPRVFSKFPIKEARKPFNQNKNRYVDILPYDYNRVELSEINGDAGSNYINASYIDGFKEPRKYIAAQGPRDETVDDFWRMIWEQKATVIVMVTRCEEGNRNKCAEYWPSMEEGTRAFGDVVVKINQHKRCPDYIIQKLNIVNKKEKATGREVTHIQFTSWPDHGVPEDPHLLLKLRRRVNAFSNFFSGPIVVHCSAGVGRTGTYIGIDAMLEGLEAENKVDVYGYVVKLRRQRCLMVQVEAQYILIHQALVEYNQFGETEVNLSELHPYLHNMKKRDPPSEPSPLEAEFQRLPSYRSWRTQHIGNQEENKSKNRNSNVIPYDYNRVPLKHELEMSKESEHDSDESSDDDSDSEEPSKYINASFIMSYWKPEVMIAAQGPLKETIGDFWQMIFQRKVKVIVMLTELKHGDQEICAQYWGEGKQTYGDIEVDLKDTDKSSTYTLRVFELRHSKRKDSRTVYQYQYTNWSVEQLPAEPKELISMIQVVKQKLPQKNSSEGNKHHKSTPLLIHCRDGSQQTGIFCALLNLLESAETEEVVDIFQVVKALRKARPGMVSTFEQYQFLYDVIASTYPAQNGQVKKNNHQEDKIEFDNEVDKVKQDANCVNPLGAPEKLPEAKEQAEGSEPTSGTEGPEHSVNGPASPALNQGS

[11] = biological target: T3, Cytochrome P450 1A2 (Homo sapiens, UniProt P05177); settings: bti-tn-5b1-4; also: in other assays of this panel Not Active means under 50% inhibition at 10 µM
T3 sequence (P05177 whole entry): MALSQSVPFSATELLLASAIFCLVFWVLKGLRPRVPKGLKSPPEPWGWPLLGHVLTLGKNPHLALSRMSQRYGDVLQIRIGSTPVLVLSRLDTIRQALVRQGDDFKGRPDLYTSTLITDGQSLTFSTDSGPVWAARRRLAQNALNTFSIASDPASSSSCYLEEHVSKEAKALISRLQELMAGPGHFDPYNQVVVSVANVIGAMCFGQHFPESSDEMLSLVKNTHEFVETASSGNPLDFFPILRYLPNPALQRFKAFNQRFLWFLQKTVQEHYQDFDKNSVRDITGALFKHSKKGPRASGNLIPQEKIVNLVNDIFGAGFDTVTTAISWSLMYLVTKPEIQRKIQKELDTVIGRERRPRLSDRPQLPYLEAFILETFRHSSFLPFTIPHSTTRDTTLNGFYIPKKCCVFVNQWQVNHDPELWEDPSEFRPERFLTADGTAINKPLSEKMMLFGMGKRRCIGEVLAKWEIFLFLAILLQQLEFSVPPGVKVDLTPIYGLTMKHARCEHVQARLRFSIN

Melanocortin receptor 4, sequence (P32245 whole entry): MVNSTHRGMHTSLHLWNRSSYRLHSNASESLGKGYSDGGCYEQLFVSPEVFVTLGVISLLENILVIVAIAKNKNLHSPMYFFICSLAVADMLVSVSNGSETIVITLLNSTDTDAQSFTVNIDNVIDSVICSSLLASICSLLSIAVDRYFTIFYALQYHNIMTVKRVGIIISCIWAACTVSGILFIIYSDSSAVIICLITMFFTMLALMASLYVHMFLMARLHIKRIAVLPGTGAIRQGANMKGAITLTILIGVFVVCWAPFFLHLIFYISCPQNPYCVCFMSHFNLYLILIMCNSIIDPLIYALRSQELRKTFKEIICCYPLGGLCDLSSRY
5-hydroxytryptamine receptor 6, sequence (P50406 whole entry): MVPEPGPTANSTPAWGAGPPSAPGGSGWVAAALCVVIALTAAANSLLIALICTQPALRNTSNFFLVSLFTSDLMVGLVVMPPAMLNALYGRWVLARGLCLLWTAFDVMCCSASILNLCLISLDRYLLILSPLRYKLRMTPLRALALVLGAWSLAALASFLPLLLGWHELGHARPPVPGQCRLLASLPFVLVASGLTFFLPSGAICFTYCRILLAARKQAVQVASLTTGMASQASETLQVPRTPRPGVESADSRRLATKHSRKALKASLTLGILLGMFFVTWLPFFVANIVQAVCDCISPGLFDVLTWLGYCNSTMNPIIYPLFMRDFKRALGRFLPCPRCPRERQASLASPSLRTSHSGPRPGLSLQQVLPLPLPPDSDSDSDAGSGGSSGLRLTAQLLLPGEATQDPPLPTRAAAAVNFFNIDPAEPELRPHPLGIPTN
Beta-3 adrenergic receptor, sequence (P13945 whole entry): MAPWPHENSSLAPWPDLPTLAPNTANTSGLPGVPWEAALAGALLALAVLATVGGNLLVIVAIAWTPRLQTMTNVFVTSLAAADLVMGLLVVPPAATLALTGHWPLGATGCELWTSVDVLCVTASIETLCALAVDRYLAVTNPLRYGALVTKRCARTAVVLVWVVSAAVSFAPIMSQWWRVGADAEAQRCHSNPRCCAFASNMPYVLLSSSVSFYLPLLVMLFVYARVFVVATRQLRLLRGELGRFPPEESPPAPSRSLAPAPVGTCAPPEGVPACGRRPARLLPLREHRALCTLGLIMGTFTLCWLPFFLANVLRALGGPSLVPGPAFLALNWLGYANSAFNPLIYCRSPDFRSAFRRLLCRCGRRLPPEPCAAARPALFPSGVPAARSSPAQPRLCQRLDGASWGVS
Sodium-dependent noradrenaline transporter, sequence (P23975 whole entry): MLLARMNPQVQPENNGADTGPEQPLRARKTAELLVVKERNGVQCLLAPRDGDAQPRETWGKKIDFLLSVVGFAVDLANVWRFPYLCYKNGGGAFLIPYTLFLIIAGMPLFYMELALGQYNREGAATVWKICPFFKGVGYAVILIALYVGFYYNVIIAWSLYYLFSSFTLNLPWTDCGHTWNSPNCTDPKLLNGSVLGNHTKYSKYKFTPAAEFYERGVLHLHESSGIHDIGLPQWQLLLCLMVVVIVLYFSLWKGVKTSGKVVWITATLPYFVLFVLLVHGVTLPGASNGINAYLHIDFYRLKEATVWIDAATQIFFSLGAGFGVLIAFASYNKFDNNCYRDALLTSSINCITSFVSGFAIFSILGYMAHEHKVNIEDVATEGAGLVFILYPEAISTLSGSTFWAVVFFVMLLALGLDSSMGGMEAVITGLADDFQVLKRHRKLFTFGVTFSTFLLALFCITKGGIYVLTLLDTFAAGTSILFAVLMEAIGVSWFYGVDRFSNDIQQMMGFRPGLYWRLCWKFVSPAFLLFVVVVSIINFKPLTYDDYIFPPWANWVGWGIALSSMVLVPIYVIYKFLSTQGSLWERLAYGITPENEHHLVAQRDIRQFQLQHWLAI
Vasopressin V1a receptor, sequence (P37288 whole entry): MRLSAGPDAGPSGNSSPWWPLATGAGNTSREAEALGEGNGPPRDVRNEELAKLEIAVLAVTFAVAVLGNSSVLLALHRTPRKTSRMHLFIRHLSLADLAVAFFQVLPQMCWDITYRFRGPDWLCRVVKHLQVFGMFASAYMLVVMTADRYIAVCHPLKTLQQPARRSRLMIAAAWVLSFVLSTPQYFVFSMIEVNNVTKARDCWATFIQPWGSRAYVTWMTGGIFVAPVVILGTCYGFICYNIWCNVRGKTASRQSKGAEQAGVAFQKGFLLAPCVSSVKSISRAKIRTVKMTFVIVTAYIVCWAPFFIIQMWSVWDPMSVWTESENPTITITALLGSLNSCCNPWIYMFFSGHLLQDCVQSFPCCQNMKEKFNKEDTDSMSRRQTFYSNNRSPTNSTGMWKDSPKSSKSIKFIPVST
Estrogen receptor beta, sequence (Q92731 whole entry): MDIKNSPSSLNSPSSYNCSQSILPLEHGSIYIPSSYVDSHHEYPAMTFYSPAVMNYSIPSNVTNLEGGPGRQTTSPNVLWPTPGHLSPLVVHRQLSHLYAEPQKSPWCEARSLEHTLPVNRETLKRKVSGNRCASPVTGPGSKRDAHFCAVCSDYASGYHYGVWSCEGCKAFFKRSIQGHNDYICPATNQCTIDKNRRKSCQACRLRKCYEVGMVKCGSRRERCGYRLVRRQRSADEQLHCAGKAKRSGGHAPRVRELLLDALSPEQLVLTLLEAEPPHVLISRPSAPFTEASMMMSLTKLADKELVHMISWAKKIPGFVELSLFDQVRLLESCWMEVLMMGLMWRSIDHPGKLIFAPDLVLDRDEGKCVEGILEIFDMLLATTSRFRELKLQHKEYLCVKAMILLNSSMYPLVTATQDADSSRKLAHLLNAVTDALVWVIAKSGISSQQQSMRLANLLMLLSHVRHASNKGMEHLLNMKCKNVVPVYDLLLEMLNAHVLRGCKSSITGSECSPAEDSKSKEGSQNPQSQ

Structure (SMILES)	IC50 ([1]; hela)	IC50 [2]	IC50 ([3]; mdck)	IC50 [4]	IC50 [5]	Ki [5]	IC50 ([6]; platelet)	IC50 [7]	IC50 [8]	Ki [8]	IC50 [9]	IC50 [10]	IC50 [11]	Ki [11]	IC50 ([1]; read-out: IC50) [nM]	Ki ([1]; read-out: Ki) [nM]	IC50 ([3]; read-out: IC50) [nM]	Ki ([3]; read-out: Ki) [nM]	IC50 ([6]; read-out: IC50) [nM]
[H]/N=C(/N)N[C@H]1[C@H](O)[C@@H](O)[C@H](O[C@@H]2O[C@@H](C)[C@](O)(C=O)[C@H]2O[C@@H]2O[C@@H](CO)[C@H](O)[C@@H](O)[C@@H]2NC)[C@@H](N/C(N)=N\[H])[C@@H]1O [STREPTOMYCIN]	Not Active	Not Active	Not Active	Not Active	Not Active	Not Active	Not Active	Not Active	Not Active	Not Active	Not Active	Not Active	Not Active	Not Active					
COc1cc(NS(=O)(=O)c2ccc(N)cc2)nc(OC)n1 [SULFADIMETHOXINE]		Not Active	Not Active	Not Active	Not Active	Not Active	Not Active	Not Active	Not Active	Not Active	Not Active	Not Active	Not Active	Not Active	1340	622			
CN1C(C(=O)Nc2ccccn2)=C(O)c2sccc2S1(=O)=O [TENOXICAM]	Not Active	Not Active	Not Active	Not Active	Not Active	Not Active	Not Active	Not Active	Not Active	Not Active	Not Active	Not Active	Not Active	Not Active					
O=C1CCC(N2C(=O)c3ccccc3C2=O)C(=O)N1 (stereo not drawn) [THALIDOMIDE]	Not Active	Not Active	Not Active	Not Active	Not Active	Not Active	Not Active	Not Active	Not Active	Not Active	Not Active	Not Active	Not Active	Not Active					
Cc1cccc(Nc2ccncc2S(=O)(=O)NC(=O)NC(C)C)c1 [TORSEMIDE]	Not Active	Not Active	Not Active	Not Active	Not Active	Not Active	Not Active	Not Active	Not Active	Not Active	Not Active	Not Active	Not Active	Not Active					
CC(C)C[C@H](NC(=O)[C@@H](O)[C@H](N)Cc1ccccc1)C(=O)O [UBENIMEX]	Not Active	Not Active	Not Active	Not Active	Not Active	Not Active	Not Active	Not Active	Not Active	Not Active	Not Active	Not Active	Not Active	Not Active					
Cc1onc(-c2ccccc2)c1-c1ccc(S(N)(=O)=O)cc1 [VALDECOXIB]	Not Active	Not Active		Not Active	Not Active	Not Active	Not Active	Not Active	Not Active	Not Active	Not Active	Not Active	Not Active	Not Active			2930	2900	
CC[C@]1(O)C[C@@H]2CN(CCc3c([nH]c4ccccc34)[C@@](C(=O)OC)(c3cc4c(cc3OC)N(C)[C@H]3[C@@](O)(C(=O)OC)[C@H](OC(C)=O)[C@]5(CC)C=CCN6CC[C@]43[C@@H]65)C2)C1 [VINBLASTINE]	Not Active	Not Active	Not Active	Not Active	Not Active	Not Active		Not Active	Not Active	Not Active	Not Active	Not Active	Not Active	Not Active					1870
C[C@@H](N)[C@H]1CC[C@H](C(=O)Nc2ccncc2)CC1 [Y-27632]	Not Active	Not Active	Not Active	Not Active	Not Active	Not Active	Not Active	Not Active	Not Active	Not Active	Not Active	Not Active	Not Active	Not Active					
